In data set [1] the test system is Respiratory syncytial virus recombinant with luciferase (RSV-Luc5) in HEp-2 cells. Nature of the data set: HEp-2 RSV-Luc5 384-well Assay (EC50 RSVFLUC Hep2-384 v2, Ex. V). Conditions: human respiratory syncytial virus, HEp-2, 72 h, read-out: EC50 RSV FLuc Hep-2 384 V2 (per Ex. V). The class given is cell-based. From the text: Example V: HEp-2 RSV-Luc5 384-well Assay (EC50 RSVFLUC Hep2-384 v2)
HEp-2 cell line was purchased from ATCC (Manassas, VA Cat #CCL-23) and maintained in Dulbecco's […] (DMEM) (Corning, New York, NY, Cat #15-018CM) supplemented with 10% fetal bovine serum (FBS) (Hyclone, Logan, UT, Cat #SH30071-03) and 1× Penicillin-Streptonycin-L-Glutamine (Corning, New York, NY, Cat #30-009-CI). Cells were passaged 2 times per week to maintain sub-confluent densities and were used for experiments at passage 5-20. Respiratory syncytial virus recombinant with luciferase (RSV-Luc5) (≥1 ×107 TCID50/ml) was purchased from Microbiologics (Saint Cloud, MN). Viral replication was determined in HEp-2 cells in the following manner.
Compounds are prepared in 100% DMSO in 384-well polypropylene plates (Greiner, Monroe, NC, Cat #784201) with 8 compounds per plate in grouped replicates of 4 at 10 serially diluted concentrations (1:3). The serially diluted compounds were transferred to low dead volume Echo plates (Labcyte, Sunnyvale, CA, Cat #LP-0200).
The test compounds were spotted to 384-well assay plates (Greiner, Monroe, NC, Cat#781091) at 200 nL per well. HEp-2 cells were harvested and suspended in DMEM (supplemented with 10% FBS and 1× Penicillin-Streptonycin-L-Glutamine) and seeded to the pre-spotted assay plates at 4,000 cells per well in 30 μL. RSV-Luc5 viruses were diluted in DMEM (supplemented with 10% FBS and 1× Penicillin-Streptomycin-L-Glutamine) at 200,000 Infectious Units (IU) per mL and 10 μL per well was added to the assay plates containing cells and compounds, for an MOI=0.5. The assay plates were incubated for 3 days at 37° C. and 5% CO2. At the end of incubation, One-Glo reagent (Promega, Madison, WI, Cat #E6120) was prepared. The assay plates and One-Glo reagent were equilibrated to room temperature for at least 15 minutes. 40 μL per well of One-Glo reagent was added and the plates were incubated at room temp for 15 minutes before reading the luminescence signal on an EnVision multimode plate reader (Perkin Elmer, Waltham, MA). Remdesivir was used as positive control and DMSO was used as negative control. Values were normalized to the positive and negative controls (as 0% and 100% replication, respectively) and data was fitted using non-linear regression analysis by Gilead's dose response tool. The EC50 value for each compound was then determined as the concentration reducing the viral replication by 50%.

A short description of data set [2]: GI S9 stability (Ex. Z), human intestinal S9. The class given is in vitro ADME. Conditions: human intestinal S9, 1.0 mg/mL protein, 2 μM substrate, pH 7.4, read-out: GIS9 Human T½ (per Ex. Z). The protocol:
Example Z: GI S9 stability data:
Stock solutions of test compounds in dimethyl sulfoxide (DMSO) having a final concentration of 10 mM were prepared and used in all experiments. Sekisui XenoTech (Kansas City, KS) provided pooled intestinal S9 fractions. All other chemicals were purchased from Sigma-Aldrich (St. Louis, MO) or VWR (West Chester, PA). Internal Standard/Quench (IS/Q) used to stop reactions was 100 nM labetalol in (by volume) methanol (10%) and acetonitrile (90%).
Stability in Intestinal S9 Fractions: Duplicate aliquots of test compound or positive control substrate were added to S9 stock diluted with phosphate buffered saline (137 mM NaCl, 2.7 mM KCl, 10 mM phosphate buffer), pH 7.4, to obtain a protein concentration of 1.0 mg/mL. The metabolic reactions were initiated by the addition of the substrates to the S9 reaction mixture to a final concentration of 2 μM. At 0, 10, 20, 30, 60 and 120 min, 25 μL aliquots of the reaction mixture were transferred to plates containing 225 μl of IS/Q solution. After quenching, the plates were centrifuged at 3000×g for 30 minutes. 150 μL aliquots of each supernatant were dried down then reconstituted with 300 μL water. Aliquots (10 μL) of the prepared samples were analyzed on a Thermo Q-Exactive mass spectrometer as described below.
Liquid Chromatography—Mass Spectrometry: Quantification of test compounds and control substrate was performed by analyte/internal standard peak area ratio (PAR) values measured on a Thermo Q-Exactive mass spectrometer coupled to a Dionex UltiMate 3000 HPLC with a Leap Technologies HTC PAL autosampler. The column used for analysis was a Waters Acquity BEH C18 (1.7 μm particle size, 2.1×50 mm). Mobile phase A consisted of 0.1% (v/v) formic acid in water. Mobile phase B consisted of 0.1% (v/v) formic acid in acetonitrile. Elution of analytes was achieved by a series of linear gradients varying the proportions of A and B. The mass spectrometer was calibrated on a weekly basis and mass tolerance of 5 ppm was used.
Metabolic stabilities in S9 fractions were determined by measuring the rates of disappearance of test compound and positive control substrate.
Data (% of substrate remaining) were plotted on a semi-log scale and fitted using an exponential decline model:
Where Ct—% of substrate remaining at time=t; C0—% of substrate remaining at time=0; t—time; T½—half-life The Half-life (T½) is determined by the following equation: […]
Assuming a first-order reaction, the slope (k) is extrapolated from the aforementioned plotted data.

pEC50: −log10 of the molar value. Where two headings read alike, the source gives them in different places.

Consider `N#C[C@]1(COC(=O)C2CC3(CCC3)C2)O[C@@H](c2ccc3c(N)ncnn23)[C@H](O)[C@@H]1O` [Compound 32, ((2R,3S,4R,5S)-5-(4-aminopyrrolo[2,1-f][1,2,4]triazin-7-yl)-2-cyano-3,4-dihydroxytetrahydrofuran-2-yl)methyl spiro[3.3]heptane-2-carboxylate], for which the pEC50 in data set [1] was 4.79. Moreover, the half-life at 2 μM in data set [2] (pooled intestinal S9 fractions) was 12 min.

Regarding `N#C[C@]1(COC(=O)c2ccccc2)O[C@@H](c2ccc3c(N)ncnn23)[C@H](O)[C@@H]1O` [Compound 2, ((2R,3S,4R,5S)-5-(4-aminopyrrolo[2,1-f][1,2,4]triazin-7-yl)-2-cyano-3,4-dihydroxytetrahydrofuran-2-yl)methyl benzoate], the pEC50 in data set [1] was 4.43. The half-life at 2 μM in data set [2] (pooled intestinal S9 fractions) came out at 27 min.

Regarding `CC(C)C(=O)Nc1ncnn2c([C@@H]3O[C@](C#N)(CO)[C@@H](O)[C@H]3O)ccc12` [Compound 30, N-(7-((2S,3R,4S,5R)-5-cyano-3,4-dihydroxy-5-(hydroxymethyl)tetrahydrofuran-2-yl)pyrrolo[2,1-f][1,2,4]triazin-4-yl)isobutyramide], the pEC50 in data set [1] is below 4.30. Also, the half-life at 2 μM in data set [2] (pooled intestinal S9 fractions) turned out to be 789 min.

In the case of `CCC(CC)C(=O)OC[C@@]1(C#N)O[C@@H](c2ccc3c(N)ncnn23)[C@H](O)[C@@H]1O` [Compound 9, ((2R,3S,4R,5S)-5-(4-aminopyrrolo[2,1-f][1,2,4]triazin-7-yl)-2-cyano-3,4-dihydroxytetrahydrofuran-2-yl)methyl 2-ethylbutanoate], in data set [1], the pEC50 is 4.54. Further, the half-life at 2 μM in data set [2] (pooled intestinal S9 fractions) was determined as 55 min.

Take `CC(C)C(=O)OC[C@@]1(C#N)O[C@@H](c2ccc3c(N)ncnn23)[C@H](O)[C@@H]1O` [Compound 1, ((2R,3S,4R,5S)-5-(4-aminopyrrolo[2,1-f][1,2,4]triazin-7-yl)-2-cyano-3,4-dihydroxytetrahydrofuran-2-yl)methyl isobutyrate]: the pEC50 in data set [1] was 4.82. In data set [2] (pooled intestinal S9 fractions), the half-life at 2 μM was 38 min.

For the molecule `CC(C)CC(=O)OC[C@@]1(C#N)O[C@@H](c2ccc3c(N)ncnn23)[C@H](O)[C@@H]1O` [Compound 3, ((2R,3S,4R,5S)-5-(4-aminopyrrolo[2,1-f][1,2,4]triazin-7-yl)-2-cyano-3,4-dihydroxytetrahydrofuran-2-yl)methyl 3-methylbutanoate], the pEC50 in data set [1] was 4.58. Also, the half-life at 2 μM in data set [2] (pooled intestinal S9 fractions) came out at 42 min.

`N#C[C@]1(COC(=O)C2CC2)O[C@@H](c2ccc3c(N)ncnn23)[C@H](O)[C@@H]1O` [Compound 7, ((2R,3S,4R,5S)-5-(4-aminopyrrolo[2,1-f][1,2,4]triazin-7-yl)-2-cyano-3,4-dihydroxytetrahydrofuran-2-yl)methyl cyclopropanecarboxylate]: the pEC50 in data set [1] is 4.30. Further, the half-life at 2 μM in data set [2] (pooled intestinal S9 fractions) was found to be 292 min.

Consider `CC1(C(=O)OC[C@@]2(C#N)O[C@@H](c3ccc4c(N)ncnn34)[C@H](O)[C@@H]2O)CC1` [Compound 15, ((2R,3S,4R,5S)-5-(4-aminopyrrolo[2,1-f][1,2,4]triazin-7-yl)-2-cyano-3,4-dihydroxytetrahydrofuran-2-yl)methyl 1-methylcyclopropane-1-carboxylate], for which the negative logarithm of the EC50 (pEC50) in data set [1] is 4.50. Also, the half-life at 2 μM in data set [2] (pooled intestinal S9 fractions) came out at 104 min.

`CCC(CC)C(=O)Nc1ncnn2c([C@@H]3O[C@](C#N)(COC(=O)C(CC)CC)[C@@H](O)[C@H]3O)ccc12` [Compound 11, ((2R,3S,4R,5S)-2-cyano-5-(4-(2-ethylbutanamido)pyrrolo[2,1-f][1,2,4]triazin-7-yl)-3,4-dihydroxytetrahydrofuran-2-yl)methyl 2-ethylbutanoate]: in data set [1], the pEC50 is 4.38. Moreover, the half-life at 2 μM in data set [2] (pooled intestinal S9 fractions) was 56 min.

In the case of `CC(=O)OC[C@@]1(C#N)O[C@@H](c2ccc3c(N)ncnn23)[C@H](OC(C)=O)[C@@H]1OC(C)=O` [Compound 28, (2R,3S,4S,5S)-2-(acetoxymethyl)-5-(4-aminopyrrolo[2,1-f][1,2,4]triazin-7-yl)-2-cyanotetrahydrofuran-3,4-diyl diacetate], the pEC50 in data set [1] was 4.80. Also, in data set [2] (pooled intestinal S9 fractions), the half-life at 2 μM amounted to 5 min.

On to `N#C[C@]1(COC(=O)CC2CCC2)O[C@@H](c2ccc3c(N)ncnn23)[C@H](O)[C@@H]1O` [Compound 16, ((2R,3S,4R,5S)-5-(4-aminopyrrolo[2,1-f][1,2,4]triazin-7-yl)-2-cyano-3,4-dihydroxytetrahydrofuran-2-yl)methyl 2-cyclobutylacetate], for which the pEC50 in data set [1] was 4.74. Further, the half-life at 2 μM in data set [2] (pooled intestinal S9 fractions) worked out at 14 min.

As for `CCC(C)(C)C(=O)OC[C@@]1(C#N)O[C@@H](c2ccc3c(N)ncnn23)[C@H](O)[C@@H]1O` [Compound 35, ((2R,3S,4R,5S)-5-(4-aminopyrrolo[2,1-f][1,2,4]triazin-7-yl)-2-cyano-3,4-dihydroxytetrahydrofuran-2-yl)methyl 2,2-dimethylbutanoate], in data set [1], the negative-log EC50 (pEC50) is 4.61. In addition, in data set [2] (pooled intestinal S9 fractions), the half-life at 2 μM was determined as 273 min.

As for `N#C[C@]1(COC(=O)C2CCC2)O[C@@H](c2ccc3c(N)ncnn23)[C@H](O)[C@@H]1O` [Compound 8, ((2R,3S,4R,5S)-5-(4-aminopyrrolo[2,1-f][1,2,4]triazin-7-yl)-2-cyano-3,4-dihydroxytetrahydrofuran-2-yl)methyl cyclobutanecarboxylate], the pEC50 in data set [1] was 4.83. Moreover, the half-life at 2 μM in data set [2] (pooled intestinal S9 fractions) was found to be 4 min.

Take `N#C[C@]1(COC(=O)Cc2ccccc2)O[C@@H](c2ccc3c(N)ncnn23)[C@H](O)[C@@H]1O` [Compound 38, ((2R,3S,4R,5S)-5-(4-aminopyrrolo[2,1-f][1,2,4]triazin-7-yl)-2-cyano-3,4-dihydroxytetrahydrofuran-2-yl)methyl 2-phenylacetate]: the pEC50 in data set [1] was 4.72. The half-life at 2 μM in data set [2] amounted to 28 min.

In the case of `CCC(=O)OC[C@@]1(C#N)O[C@@H](c2ccc3c(N)ncnn23)[C@H](O)[C@@H]1O` [Compound 5, ((2R,3S,4R,5S)-5-(4-aminopyrrolo[2,1-f][1,2,4]triazin-7-yl)-2-cyano-3,4-dihydroxytetrahydrofuran-2-yl)methyl propionate], the pEC50 in data set [1] was 4.70. For the same molecule, in data set [2] (pooled intestinal S9 fractions), the half-life at 2 μM came to 29 min.

For the molecule `CC(C)(C)C(=O)OC[C@@]1(C#N)O[C@@H](c2ccc3c(N)ncnn23)[C@H](O)[C@@H]1O` [Compound 10, ((2R,3S,4R,5S)-5-(4-aminopyrrolo[2,1-f][1,2,4]triazin-7-yl)-2-cyano-3,4-dihydroxytetrahydrofuran-2-yl)methyl pivalate], the pEC50 in data set [1] was 4.66. Moreover, the half-life at 2 μM in data set [2] (pooled intestinal S9 fractions) came to 124 min.

Values taken from patent US20240199676A1, “ANTIVIRAL COMPOUNDS AND METHODS OF MAKING AND USING THE SAME” (Gilead Sciences, Inc., priority 2022, published 2024).
